Reference: US11352350B2, “IRAK degraders and uses thereof” (Kymera Therapeutics, Inc., priority 2018, dated 2022)
pIC50: −log10 of the molar value. Where two headings read alike, the source gives them in different places.

Key:
OCI-LY10 = assay: CTG Cell Viability Assay - OCI-LY10; format: cell-based, human; details: OCI-LY10, 4 days, read-out: CTG Cell Viability Assay - OCI-LY10: Average external-IC50
Procedure: Compound-mediated viability effect on OCI-LY10 or TMD8 was quantitatively determined using the CellTiter-Glo® Luminescent Cell Viability Assay kit from Promega (Catalog number G7570) following manufacturer's recommended procedures. […] Compounds were then added to the assay plate with final top concentration of 10 μM and 1:3 dilution series with total of 9 doses. The final DMSO concentration was normalized to 0.2%. The assay plates were incubated at 37° C. for 4 days under 5% CO2. Then the assay plate was equilibrated at room temperature for 10 minutes. […] The data was then analyzed by software Prism 7.0 from GraphPad and the dose response curves were fit using a three-parameter logistic equation to calculate IC50.

IRAK4 = IRAK4 (Homo sapiens (Human), UniProt Q9NWZ3); assay: IRAK4 MSD degradation in OCI-LY10; format: cell-based
Chain of IRAK4 (Q9NWZ3 whole entry): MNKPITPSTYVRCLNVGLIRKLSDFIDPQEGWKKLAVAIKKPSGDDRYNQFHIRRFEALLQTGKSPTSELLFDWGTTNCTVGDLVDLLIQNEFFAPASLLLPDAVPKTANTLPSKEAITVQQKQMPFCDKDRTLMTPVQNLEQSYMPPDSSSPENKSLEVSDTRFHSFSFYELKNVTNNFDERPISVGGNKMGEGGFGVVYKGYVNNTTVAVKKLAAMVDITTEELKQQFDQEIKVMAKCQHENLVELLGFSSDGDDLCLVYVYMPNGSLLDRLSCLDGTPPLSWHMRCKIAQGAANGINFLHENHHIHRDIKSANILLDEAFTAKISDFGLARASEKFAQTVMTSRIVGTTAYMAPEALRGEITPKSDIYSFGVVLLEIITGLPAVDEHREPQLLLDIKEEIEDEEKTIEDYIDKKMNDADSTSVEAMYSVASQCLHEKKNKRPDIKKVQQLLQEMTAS
Procedure: Degradation of IRAK4 in OCI-LY10 was quantitatively measured using Meso Scale Discovery technology. […] Compounds were then added to the assay plates with a final top concentration of 1 to 10 μM in a 1:3 dilution series with total of 8 doses. The assay plates were then incubated for 4 to 24 hours at 37° C. under 5% CO2. […] To prepare MSD assay plates (Meso Scale Discovery Catalog number L15XA-3), the plates were coated with […] capture antibody (mouse Anti-IRAK4 antibody [2H9], ab119942) in PBS, at 40 μL/well. […] Cell lysates were then added to MSD assay plates and the plates were incubated at room temperature for 1 hour. The plates were then washed 3 times with 150 μL/well TBST buffer and 25 μL/well primary detection antibody (rabbit Anti-IRAK4 antibody [Y279], from Abcam. Catalog number ab32511, […]). The assay plates were then incubated at room temperature for 1 hour, washed 3 times with 150 μL/well TBST buffer and 25 µL/well secondary detection antibody, SULFO-TAG anti-rabbit antibody were added (anti rabbit antibody from Meso Scale Discovery, Catalog number R32AB-1, 1 μg/mL). The assay plates were then incubated at room temperature for 1 hour, washed 3 times with 150 μL/well TB ST buffer, and 150 μL/well MSD reading buffer (Meso Scale Discovery catalog number R92TC-2) was added. The plates were then analyzed by a MSD reader (Meso Scale Discovery, Model Quick Plex SQ 120). The data was then analyzed by software Prism 7.0 from GraphPad and the dose-depended IRAK4 degradation were fit using a three-parameter logistic equation to calculate DC50.

[1] = OCI-LY10, 4 hrs, MSD, read-out: IRAK4 MSD degradation in OCI-LY10 at 4 hrs: Average external-Abs DC50
[2] = OCI-LY10, 24 hrs, MSD, read-out: IRAK4 MSD degradation in OCI-LY10 at 24 hrs: Average external-Abs DC50
[3] = OCI-LY10, 4 hrs, read-out: IRAK4 MSD degradation in OCI-LY10 at 4 hrs: DC50
[4] = OCI-LY10, 24 hrs, read-out: IRAK4 MSD degradation in OCI-LY10 at 24 hrs: DC50

SMILES	pIC50 (OCI-LY10)	DC50 (IRAK4; [1])	pIC50 (OCI-LY10; Homo sapiens, OCI-Ly10, 96 h)	DC50 (IRAK4; [2])	DC50 (IRAK4; [3])	DC50 (IRAK4; [4])
O=C1CCC(N2C(=O)c3cccc(NCCCOCCCOCCCN4CCC(n5cc(NC(=O)c6cnn7ccc(N8C[C@H]9C[C@@H]8CO9)nc67)c(C(F)F)n5)CC4)c3C2=O)C(=O)N1 (some centres unmarked) [I-321]	< 6.00	100 to 1000 nM	–	–	–	–
CN(CCCOCCCc1cccc2c1n(C)c(=O)n2C1CCC(=O)NC1=O)C[C@H]1CC[C@H](n2cc(NC(=O)c3cnn4ccc(N5CCOCC5)nc34)c(C(F)F)n2)CC1 (some centres unmarked) [I-259]	–	< 10 nM	< 6.00	< 10 nM	–	–
CN(CCC1CCN(Cc2cccc3c2n(C)c(=O)n3C2CCC(=O)NC2=O)CC1)C[C@H]1CC[C@H](n2cc(NC(=O)c3cnn4ccc(N5C[C@H](N)CC(F)(F)C5)nc34)c(C(F)F)n2)CC1 (some centres unmarked) [I-155]	–	10 to 100 nM	< 6.00	–	–	–
CN(C[C@H]1CC[C@H](C2N=C(NC(=O)c3cnn4ccc(N5CCOCC5)nc34)C(C(F)F)=N2)CC1)C1CCC(CNc2cccc3c2C(=O)N(C2CCC(=O)NC2=O)C3=O)CC1 (some centres unmarked) [I-459]	–	–	> 7.30	–	100 to 1000 nM	10 to 100 nM
O=C1CCC(n2c(=O)oc3c(CCCOC4CCN(C[C@H]5CC[C@H](n6cc(NC(=O)c7cnn8ccc(N9CCNCC9)nc78)c(C(F)F)n6)CC5)CC4)cccc32)C(=O)N1 (some centres unmarked) [I-165]	–	10 to 100 nM	6.00 to 6.30	–	–	–
CC[C@@H]1[C@H](F)C(=O)N[C@@H]1COc1ncc(C#CC2CCN(CCOCCNc3cccc4c3C(=O)N(C3CCC(=O)NC3=O)C4=O)CC2)c2cc(C(N)=O)c(OC)cc12 (stereo partly drawn) [I-357, 4-[2-[1-[2-[2-[[2-(2,6-dioxo-3-piperidyl)-1,3-dioxo-isoindolin-4-yl]amino]ethoxy]ethyl]-4-piperidyl]ethynyl]-1-[[(2S,3S,4S)-3-ethyl-4-fluoro-5-oxo-pyrrolidin-2-yl]methoxy]-7-methoxy-isoquinoline-6-carboxamide]	–	> 1000 nM	< 6.00	–	–	–
Cn1c(=O)n(C2CCC(=O)NC2=O)c2ccc(CCCCCCC(=O)N3CCN([C@H]4CC[C@H](Nc5ncnc6[nH]cc(C7CCOCC7)c56)CC4)CC3)cc21 (some centres unmarked) [I-22]	–	> 1000 nM	6.30 to 7.00	> 1000 nM	–	–
O=C1CCC(N2C(=O)c3cccc(NC4CCN(CCCNC[C@H]5CC[C@H](n6cc(NC(=O)c7cnn8ccc(N9CCOCC9)nc78)c(C(F)F)n6)CC5)CC4)c3C2=O)C(=O)N1 (some centres unmarked) [I-384]	–	10 to 100 nM	> 7.30	–	–	–
CN(C[C@H]1CC[C@H](n2cc(NC(=O)c3cnn4ccc(N5C[C@H]6CC5CO6)nc34)c(C(F)F)n2)CC1)C1CCC2(CC1)CC(Nc1cccc3c1C(=O)N(C1CCC(=O)NC1=O)C3=O)C2 (some centres unmarked) [I-454]	–	–	7.00 to 7.30	–	100 to 1000 nM	10 to 100 nM
Cn1c(=O)n(C2CCC(=O)NC2=O)c2ccc(CCCOC3CCN(C[C@H]4CC[C@H](n5cc(NC(=O)c6cnn7ccc(N8CCOCC8)nc67)c(C(F)F)n5)CC4)CC3)cc21 (some centres unmarked) [I-176]	–	10 to 100 nM	< 6.00	–	–	–
CN(CCCNc1cccc2c1C(=O)N(C1CCC(=O)NC1=O)C2=O)C1CCN(C[C@H]2CC[C@H](n3cc(NC(=O)c4cnn5ccc(N6CCOCC6)nc45)c(C(F)F)n3)CC2)CC1 (some centres unmarked) [I-231]	–	10 to 100 nM	> 7.30	–	–	–
Cc1c[nH]c2ncnc(N[C@H]3CC[C@H](N4CCN(C(=O)COCCOCCOCCOCCCc5cccc6c5n(C)c(=O)n6C5CCC(=O)NC5=O)CC4)CC3)c12 (some centres unmarked) [I-25]	–	> 1000 nM	< 6.00	> 1000 nM	–	–
CN(C[C@H]1CC[C@H](n2cc(NC(=O)c3cnn4ccc(N[C@@H]5CCCC[C@@H]5O)nc34)c(C(F)F)n2)CC1)C1CCN(Cc2cccc3c2n(C)c(=O)n3C2CCC(=O)NC2=O)CC1 (some centres unmarked) [I-279]	–	< 10 nM	< 6.00	–	–	–
CC[C@H]1C(COc2ncc(C#C[C@H]3CC[C@H](CN(C)Cc4ccc(CCNc5cccc6c5C(=O)N(C5CCC(=O)NC5=O)C6=O)cc4)CC3)c3cc(C(N)=O)c(OC)cc23)NC(=O)[C@H]1F (some centres unmarked) [I-329]	–	100 to 1000 nM	< 6.00	–	–	–
Cn1c(=O)n(C2CCC(=O)NC2=O)c2cccc(CCCOC3CCN(C[C@H]4CC[C@H](n5cc(NC(=O)c6cnn7ccc(N8C[C@H](N)CC(F)(F)C8)nc67)c(C(F)F)n5)CC4)CC3)c21 (stereo partly drawn) [I-303, 5-[(5R)-5-amino-3,3-difluoro-1-piperidyl]-N-[3-(difluoromethyl)-1-[4-[[4-[3-[1-(2,6-dioxo-3-piperidyl)-3-methyl-2-oxo-benzimidazol-4-yl]propoxy]-1-piperidyl]methyl]cyclohexyl]pyrazol-4-yl] pyrazolo [1,5-a] pyrimidine-3-carboxamide]	–	10 to 100 nM	< 6.00	–	–	–
Cc1ncsc1-c1ccc(CNC(=O)[C@@H]2C[C@@H](O)CN2C(=O)[C@@H](NC(=O)COCCOCCOCC(=O)N2CCN([C@H]3CC[C@H](Nc4ncnc5cc(CC#N)ccc45)CC3)CC2)C(C)(C)C)cc1 [I-50]	–	> 1000 nM	< 6.00	–	–	–
Cn1c(=O)n(C2CCC(=O)NC2=O)c2cccc(CCCOCCCN3CCN([C@H]4CC[C@H](Nc5ncnc6ccc(CC#N)cc56)CC4)CC3)c21 (some centres unmarked) [I-269]	–	> 1000 nM	< 6.00	> 1000 nM	–	–
Cn1c(=O)n(C2CCC(=O)NC2=O)c2cccc(CCCOCCC(=O)N3CCN([C@H]4CC[C@H](Nc5ncnc6ccc(C#N)cc56)CC4)CC3)c21 (some centres unmarked) [I-159]	–	> 1000 nM	< 6.00	> 1000 nM	–	–
CN(Cc1ccc(CCNc2cccc3c2C(=O)N(C2CCC(=O)NC2=O)C3=O)cc1)C[C@H]1CC[C@H](n2cc(NC(=O)c3cnn4ccc(N5CCOCC5)nc34)c(C(F)F)n2)CC1 (some centres unmarked) [I-325]	–	100 to 1000 nM	< 6.00	10 to 100 nM	–	–
CN(CCC#CCN)C[C@H]1CC[C@H](n2cc(NC(=O)c3cnn4ccc(N5CCOCC5)nc34)c(C(F)F)n2)CC1 [I-412, N-[1-[4-[[5-aminopent-3-ynyl(methyl)amino]methyl]cyclohexyl]-3-(difluoromethyl)pyrazol-4-yl]-5-morpholino-pyrazolo [1,5-a]pyrimidine-3-carboxamide]	–	> 1000 nM	< 6.00	> 1000 nM	–	–
O=C1CCC(N2C(=O)c3cccc(NCC4CC5(CCN(C(=O)[C@H]6CC[C@H](n7cc(NC(=O)c8cnn9ccc(N%10CCNCC%10)nc89)c(C(F)F)n7)CC6)CC5)C4)c3C2=O)C(=O)N1 (some centres unmarked) [I-370]	–	10 to 100 nM	6.30 to 7.00	–	–	–
CN(C[C@H]1CC[C@H](n2cc(NC(=O)c3coc(-c4ccnc(NCC5CC5)c4)n3)c(C(F)F)n2)CC1)C1CCN(Cc2cccc3c2n(C)c(=O)n3C2CCC(=O)NC2=O)CC1 (some centres unmarked) [I-400]	–	< 10 nM	> 7.30	–	–	–
C[C@@H]1CN(c2ccn3ncc(C(=O)Nc4cn([C@H]5CC[C@H](CN6CCC(OCCCc7cccc8c7n(C)c(=O)n8C7CCC(=O)NC7=O)CC6)CC5)nc4C(F)F)c3n2)C[C@@H](C)O1 (some centres unmarked) [I-276]	–	< 10 nM	< 6.00	–	–	–
NC(=O)c1nn([C@H]2CC[C@@H](C(=O)NCCOCCOCCNc3cccc4c3C(=O)N(C3CCC(=O)NC3=O)C4=O)CC2)cc1NC(=O)c1coc(-c2ccnc(NCC(F)(F)F)c2)n1 (single isomer, unassigned) [I-14, N-(3-carbamoyl-1-((1s,4s)-4-((2-(2-(2-((2-(2,6-dioxopiperidin-3-yl)-1,3-dioxoisoindolin-4-yl)amino)ethoxy)ethoxy)ethyl)carbamoyl)cyclohexyl)-1H-pyrazol-4-yl)-2-(2-((2,2,2-trifluoroethyl)amino)pyridin-4-yl)oxazole-4-carboxamide]	–	10 to 100 nM	6.30 to 7.00	–	–	–
CC([C@H]1CC[C@H](n2cc(NC(=O)c3coc(-c4ccnc(NCC5CC5)c4)n3)c(C(F)F)n2)CC1)N1CCC(OCCCc2cccc3c2n(C)c(=O)n3C2CCC(=O)NC2=O)CC1 (some centres unmarked) [I-301, 2-[2-(Cyclopropylmethylamino)-4-pyridyl]-N-[3-(difluoromethyl)-1-[4-[1-[4-[3-[1-(2,6-dioxo-3-piperidyl)-3-methyl-2-oxo-benzimidazol-4-yl]propoxy]-1-piperidyl]ethyl]cyclohexyl]pyrazol-4-yl] oxazole-4-carboxamide]	–	10 to 100 nM	> 7.30	–	–	–
Cc1nc2cccc(OCCCOC3CCN(C[C@H]4CC[C@H](n5cc(NC(=O)c6cnn7ccc(N8CCOCC8)nc67)c(C(F)F)n5)CC4)CC3)c2c(=O)n1C1CCC(=O)NC1=O (some centres unmarked) [I-215]	–	> 1000 nM	< 6.00	> 1000 nM	–	–
